# US12319672B2, “Alpha-D-galactopyranoside derivatives” (Idorsia Pharmaceuticals Ltd, priority 2019, dated 2025)
# pIC50: −log10 of the molar value.
# What was measured:
# human Gal-3 (hGal-3) = human Gal-3 (hGal-3) (Homo sapiens (Human), UniProt P17931); experiment: Competitive binding assay: binding of biotinylated hGal-3 to microplate-adsorbed asialofetuin (ASF); conditions: Activity on hGal-3; mean values of several measurements
# Outline: (§1)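 Compounds diluted in DMSO competed with biotinylated hGal-3 or hGal-1 (300-1000 ng/mL) for binding to plate-adsorbed asialofetuin for 3 h at 4° C. Bound galectin was detected with streptavidin-peroxidase (80 ng/mL, 1 h, 4° C) and ABTS substrate; IC50 reported as mean of several measurements.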
# human Gal-1 (hGal-1) = experiment: Competitive binding assay: binding of biotinylated hGal-1 to microplate-adsorbed asialofetuin (ASF); conditions: Activities on hGal-1; mean values of several measurements
# Chain of human Gal-1 (hGal-1) (P09382 2-135 limits assumed): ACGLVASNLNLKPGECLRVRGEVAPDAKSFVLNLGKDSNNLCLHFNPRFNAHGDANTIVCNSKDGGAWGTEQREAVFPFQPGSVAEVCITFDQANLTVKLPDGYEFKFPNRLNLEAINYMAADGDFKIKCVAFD
# Outline: as §1
# Chain of human Gal-3 (hGal-3) (P17931 whole entry): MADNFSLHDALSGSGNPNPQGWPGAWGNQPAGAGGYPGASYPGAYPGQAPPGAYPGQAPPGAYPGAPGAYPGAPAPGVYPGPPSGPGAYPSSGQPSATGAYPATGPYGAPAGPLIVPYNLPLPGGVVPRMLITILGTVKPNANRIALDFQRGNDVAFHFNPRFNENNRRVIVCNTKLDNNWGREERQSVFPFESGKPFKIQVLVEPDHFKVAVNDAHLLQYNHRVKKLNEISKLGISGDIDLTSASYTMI
pIC50 (human Gal-3 (hGal-3)),pIC50 (human Gal-1 (hGal-1)),Structure (SMILES)
6.72,5.44,"O=C1CCC(c2cc(C[C@H]3O[C@H](CO)[C@H](O)[C@H](n4cc(-c5cc(F)c(F)c(F)c5)nn4)[C@H]3O)no2)CC1 [Example 2.12, 4-(3-(((2R,3R,4R,5R,6R)-3,5-dihydroxy-6-(hydroxymethyl)-4-(4-(3,4,5-trifluorophenyl)-1H-1,2,3-triazol-1-yl)tetrahydro-2H-pyran-2-yl)methyl)isoxazol-5-yl)cyclohexan-1-one]"
6.68,5.70,"OC[C@H]1O[C@H](Cc2cc(C3CCC(O)CC3)on2)[C@H](O)[C@@H](n2cc(-c3cc(F)c(F)c(F)c3)nn2)[C@H]1O (stereo partly drawn) [Example 2.13, (2R,3R,4R,5R,6R)-2-((5-(4-hydroxycyclohexyl)isoxazol-3-yl)methyl)-6-(hydroxymethyl)-4-(4-(3,4,5-trifluorophenyl)-1H-1,2,3-triazol-1-yl)tetrahydro-2H-pyran-3,5-diol]"
6.72,5.34,"OC[C@H]1O[C@H](Cc2cc(C3CCC(O)CC3)on2)[C@H](O)[C@@H](n2cc(-c3cc(F)c(F)c(F)c3)nn2)[C@H]1O (stereo partly drawn) [Example 2.14, (2R,3R,4R,5R,6R)-2-((5-((1r,4r)-4-hydroxycyclohexyl)isoxazol-3-yl)methyl)-6-(hydroxymethyl)-4-(4-(3,4,5-trifluorophenyl)-1H-1,2,3-triazol-1-yl)tetrahydro-2H-pyran-3,5-diol]"
7.02,5.67,"CCC(=O)O[C@@H]1[C@@H](n2cc(-c3cc(F)c(F)c(F)c3)nn2)[C@@H](O)[C@@H](CO)O[C@@H]1Cc1cc(C2CCN(C(=O)OC(C)(C)C)CC2)on1 [Example 2.15, tert-butyl 4-(3-(((2R,3R,4S,5R,6R)-5-hydroxy-6-(hydroxymethyl)-3-(propionyloxy)-4-(4-(3,4,5-trifluorophenyl)-1H-1,2,3-triazol-1-yl)tetrahydro-2H-pyran-2-yl)methyl)isoxazol-5-yl)piperidine-1-carboxylate]"
6.80,4.94,"CCC(=O)O[C@@H]1[C@@H](n2cc(-c3cc(F)c(F)c(F)c3)nn2)[C@@H](O)[C@@H](CO)O[C@@H]1Cc1cc(C2CCNCC2)on1 [Example 2.16, (2R,3R,4S,5R,6R)-5-hydroxy-6-(hydroxymethyl)-2-((5-(piperidin-4-yl)isoxazol-3-yl)methyl)-4-(4-(3,4,5-trifluorophenyl)-1H-1,2,3-triazol-1-yl)tetrahydro-2H-pyran-3-yl propionate]"
6.89,6.11,"CCO[C@@H]1[C@@H](n2cc(-c3cc(F)c(F)c(F)c3)nn2)[C@@H](O)[C@@H](CO)O[C@@H]1Cc1cc(C2CCN(C(=O)OC(C)(C)C)CC2)on1 [Example 2.17, tert-butyl 4-(3-(((2R,3R,4S,5R,6R)-3-ethoxy-5-hydroxy-6-(hydroxymethyl)-4-(4-(3,4,5-trifluorophenyl)-1H-1,2,3-triazol-1-yl)tetrahydro-2H-pyran-2-yl)methyl)isoxazol-5-yl)piperidine-1-carboxylate]"
6.66,5.20,"CCC(=O)O[C@@H]1[C@@H](n2cc(-c3cc(F)c(F)c(F)c3)nn2)[C@@H](O)[C@@H](CO)O[C@@H]1Cc1cc(C2CCNCC2)on1 [Example 2.18, (2R,3R,4S,5R,6R)-5-hydroxy-6-(hydroxymethyl)-2-((5-(piperidin-4-yl)isoxazol-3-yl)methyl)-4-(4-(3,4,5-trifluorophenyl)-1H-1,2,3-triazol-1-yl)tetrahydro-2H-pyran-3-yl propionate]"
6.77,5.98,"CCCO[C@@H]1[C@@H](n2cc(-c3cc(F)c(F)c(F)c3)nn2)[C@@H](O)[C@@H](CO)O[C@@H]1Cc1cc(C2CCN(C(=O)OC(C)(C)C)CC2)on1 [Example 2.19, tert-butyl 4-(3-(((2R,3R,4S,5R,6R)-5-hydroxy-6-(hydroxymethyl)-3-propoxy-4-(4-(3,4,5-trifluorophenyl)-1H-1,2,3-triazol-1-yl)tetrahydro-2H-pyran-2-yl)methyl)isoxazol-5-yl)piperidine-1-carboxylate]"
6.70,4.56,"CC(C)C(=O)O[C@@H]1[C@@H](n2cc(-c3cc(F)c(F)c(F)c3)nn2)[C@@H](O)[C@@H](CO)O[C@@H]1Cc1cc(C2CCN(C(=O)OC(C)(C)C)CC2)on1 [Example 2.22, tert-butyl 4-(3-(((2R,3R,4S,5R,6R)-5-hydroxy-6-(hydroxymethyl)-3-(isobutyryloxy)-4-(4-(3,4,5-trifluorophenyl)-1H-1,2,3-triazol-1-yl)tetrahydro-2H-pyran-2-yl)methyl)isoxazol-5-yl)piperidine-1-carboxylate]"

# Second part, the compound before the results:
Structure (SMILES),pIC50 (human Gal-3 (hGal-3)),pIC50 (human Gal-1 (hGal-1))
CO[C@@H]1[C@@H](n2cc(-c3ccc(C)c(F)c3F)nn2)[C@@H](O)[C@@H](CO)O[C@@H]1Cc1cc(C2CCNC(=O)CC2)no1 (some centres unmarked) [Ex 1.348],7.17,6.60
CO[C@@H]1[C@@H](n2cc(-c3ccc(C)c(F)c3F)nn2)[C@@H](O)[C@@H](CO)O[C@@H]1Cc1cc([C@H]2C[C@H]2O)on1 [Ex 1.349],6.74,5.15
CO[C@@H]1[C@@H](n2cc(-c3ccc(C)c(F)c3F)nn2)[C@@H](O)[C@@H](CO)O[C@@H]1Cc1cc([C@@H]2C[C@H]2O)on1 [Ex 1.350],6.57,5.17
CO[C@@H]1[C@@H](n2cc(-c3cccc(F)c3F)nn2)[C@@H](O)[C@@H](CO)O[C@@H]1Cc1cc(C(C)(C)C)on1 [Ex 1.351],6.74,5.98
COc1ccc(-c2cn([C@H]3[C@@H](O)[C@@H](CO)O[C@H](Cc4cc(C(C)(C)C)on4)[C@@H]3OC)nn2)c(F)c1F [Ex 1.352],7.00,5.93
"COc1ccc(-c2cc(C[C@H]3O[C@H](CO)[C@H](O)[C@H](n4cc(-c5cc(F)c(F)c(F)c5)nn4)[C@H]3O)on2)cc1 [Example 2.01, (2R,3R,4R,5R,6R)-2-(hydroxymethyl)-6-((3-(4-methoxyphenyl)isoxazol-5-yl)methyl)-4-(4-(3,4,5-trifluorophenyl)-1H-1,2,3-triazol-1-yl)tetrahydro-2H-pyran-3,5-diol]",6.08,5.08
"O=c1cc(C2=NO[C@@H](C[C@H]3O[C@H](CO)[C@H](O)[C@H](n4cc(-c5cc(F)c(F)c(F)c5)nn4)[C@H]3O)C2)cc[nH]1 [Example 2.04, 4-((R)-5-(((2R,3R,4R,5R,6R)-3,5-dihydroxy-6-(hydroxymethyl)-4-(4-(3,4,5-trifluorophenyl)-1H-1,2,3-triazol-1-yl)tetrahydro-2H-pyran-2-yl)methyl)-4,5-dihydroisoxazol-3-yl)pyridin-2(1H)-one]",6.04,4.91
"O=c1cc(C2=NO[C@H](C[C@H]3O[C@H](CO)[C@H](O)[C@H](n4cc(-c5cc(F)c(F)c(F)c5)nn4)[C@H]3O)C2)cc[nH]1 [Example 2.05, 4-((S)-5-(((2R,3R,4R,5R,6R)-3,5-dihydroxy-6-(hydroxymethyl)-4-(4-(3,4,5-trifluorophenyl)-1H-1,2,3-triazol-1-yl)tetrahydro-2H-pyran-2-yl)methyl)-4,5-dihydroisoxazol-3-yl)pyridin-2(1H)-one]",6.72,6.41
"CO[C@@H]1[C@@H](n2cc(-c3cc(F)c(F)c(F)c3)nn2)[C@@H](O)[C@@H](CO)O[C@@H]1C[C@@H]1CC(c2cc[nH]c(=O)c2)=NO1 [Example 2.07a, 4-((S)-5-(((2R,3R,4S,5R,6R)-5-hydroxy-6-(hydroxymethyl)-3-methoxy-4-(4-(3,4,5-trifluorophenyl)-1H-1,2,3-triazol-1-yl)tetrahydro-2H-pyran-2-yl)methyl)-4,5-dihydroisoxazol-3-yl)pyridin-2(1H)-one]",6.59,6.51
"CO[C@@H]1[C@@H](n2cc(-c3cc(F)c(F)c(F)c3)nn2)[C@@H](O)[C@@H](CO)O[C@@H]1C[C@H]1CC(c2cc[nH]c(=O)c2)=NO1 [Example 2.07b, 4-((R)-5-(((2R,3R,4S,5R,6R)-5-hydroxy-6-(hydroxymethyl)-3-methoxy-4-(4-(3,4,5-trifluorophenyl)-1H-1,2,3-triazol-1-yl)tetrahydro-2H-pyran-2-yl)methyl)-4,5-dihydroisoxazol-3-yl)pyridin-2(1H)-one]",5.77,4.93
"O=C(O)[C@H]1CC[C@](O)(c2cc(C[C@H]3O[C@H](CO)[C@H](O)[C@H](n4cc(-c5cc(F)c(F)c(F)c5)nn4)[C@H]3O)no2)CC1 [Example 2.11, (1S,4s)-4-(3-(((2R,3R,4R,5R,6R)-3,5-dihydroxy-6-(hydroxymethyl)-4-(4-(3,4,5-trifluorophenyl)-1H-1,2,3-triazol-1-yl)tetrahydro-2H-pyran-2-yl)methyl)isoxazol-5-yl)-4-hydroxycyclohexane-1-carboxylic acid]",5.60,4.86
"CCCCO[C@@H]1[C@@H](n2cc(-c3cc(F)c(F)c(F)c3)nn2)[C@@H](O)[C@@H](CO)O[C@@H]1Cc1cc(C2CCN(C(=O)OC(C)(C)C)CC2)on1 [Example 2.20, tert-butyl 4-(3-(((2R,3R,4S,5R,6R)-3-butoxy-5-hydroxy-6-(hydroxymethyl)-4-(4-(3,4,5-trifluorophenyl)-1H-1,2,3-triazol-1-yl)tetrahydro-2H-pyran-2-yl)methyl)isoxazol-5-yl)piperidine-1-carboxylate]",6.41,5.69
"CC(C)(C)OC(=O)N1CCC(c2cc(C[C@H]3O[C@H](CO)[C@H](O)[C@H](n4cc(-c5cc(F)c(F)c(F)c5)nn4)[C@H]3OCC(=O)O)no2)CC1 [Example 2.21, 2-(((2R,3R,4S,5R,6R)-2-((5-(1-(tert-butoxycarbonyl)piperidin-4-yl)isoxazol-3-yl)methyl)-5-hydroxy-6-(hydroxymethyl)-4-(4-(3,4,5-trifluorophenyl)-1H-1,2,3-triazol-1-yl)tetrahydro-2H-pyran-3-yl)oxy)acetic acid]",7.66,6.16
